Non-standard residues stand in square brackets, D forms with d. Residues, ends and D or L forms follow the SMILES beside them. pT = C[C@@H](OP(=O)(O)O)[C@H](N)C(=O)O; pS = N[C@@H](COP(=O)(O)O)C(=O)O
target: T1, 14-3-3ζ (Homo sapiens, UniProt P63104); test: FP assay with GR phosphorylated peptides and 14-3-3ζ; format: binding; settings: FP, doubly phosphorylated 31-mer peptides, triplicates; read-out: Kd with 14-3-3ζ (values in nM)
T1 construct: Full-length expression and purification of 14-3-3; made in house; host or cells: E. coli BL21 (DE3)STAR
T1 sequence (P63104 1-245): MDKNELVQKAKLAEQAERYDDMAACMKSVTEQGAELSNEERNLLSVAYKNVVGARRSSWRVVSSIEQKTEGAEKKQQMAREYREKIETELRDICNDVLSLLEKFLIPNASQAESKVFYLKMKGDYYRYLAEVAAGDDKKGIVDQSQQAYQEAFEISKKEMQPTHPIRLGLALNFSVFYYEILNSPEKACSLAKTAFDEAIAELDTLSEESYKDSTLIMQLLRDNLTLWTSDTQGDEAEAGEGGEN
Experimental: After 30-min incubation at RT, the plates were read on a plate reader PHERAstar (BMG LABTECH GmbH) for FP signal using […] and standard excitation (485 nm) and emission (520 nm). Measurements were performed as triplicates. Binding data were fit to a standard Hill equation using the software Genedata Screener. The figures were made using the software GraphPad Prism 8. FP data were expressed as millipolarization (mP) units, and the dynamic range (ΔmP) was the difference of the signals from the bound peptide and free peptide. Errors are the standard error of the fit.

Compound	Kd [nM]
CC[C@H](C)[C@H](NC(=O)[C@@H](NC(=O)[C@H](C)N)[C@@H](C)O)C(=O)N[C@H](C(=O)N1CCC[C@H]1C(=O)N[C@@H](C)C(=O)N[C@H](C(=O)N[C@@H](CC(C)C)C(=O)N1CCC[C@H]1C(=O)N[C@@H](CCC(N)=O)C(=O)N[C@@H](CC(C)C)C(=O)N[C@H](C(=O)N1CCC[C@H]1C(=O)NCC(=O)NCC(=O)NCC(=O)NCC(=O)NCC(=O)N[C@@H](CCCNC(=N)N)C(=O)N[C@@H](CO)C(=O)N[C@@H](Cc1ccc(O)cc1)C(=O)N[C@@H](CCCNC(=N)N)C(=O)N[C@@H](CCC(N)=O)C(=O)N[C@@H](CO)C(=O)N[C@@H](COP(=O)(O)O)C(=O)N[C@@H](C)C(=O)N[C@@H](CC(N)=O)C(=O)N[C@@H](CC(C)C)C(=O)N[C@@H](CC(C)C)C(=O)N[C@@H](CS)C(=O)N[C@@H](Cc1ccccc1)C(=O)O)[C@@H](C)O)[C@@H](C)OP(=O)(O)O)C(C)C [GR_K518A] (H-ATIVPA[pT]LPQLTPGGGGGRSYRQS[pS]ANLLCF-OH)	110

same assay, conditions: read-out: PKd with 14-3-3ζ (converted)

Compound	Kd [nM]
CC[C@H](C)[C@H](NC(=O)[C@@H](NC(=O)[C@@H](N)CCCCN)[C@@H](C)O)C(=O)N[C@H](C(=O)N1CCC[C@H]1C(=O)N[C@@H](C)C(=O)N[C@H](C(=O)N[C@@H](CC(C)C)C(=O)N1CCC[C@H]1C(=O)N[C@@H](CCC(N)=O)C(=O)N[C@@H](CC(C)C)C(=O)N[C@H](C(=O)N1CCC[C@H]1C(=O)NCC(=O)NCC(=O)NCC(=O)NCC(=O)NCC(=O)N[C@@H](CCCNC(=N)N)C(=O)N[C@@H](CO)C(=O)N[C@@H](Cc1ccc(O)cc1)C(=O)N[C@@H](CCCNC(=N)N)C(=O)N[C@@H](CCC(N)=O)C(=O)N[C@@H](CO)C(=O)N[C@@H](COP(=O)(O)O)C(=O)N[C@@H](C)C(=O)N[C@@H](CC(N)=O)C(=O)N[C@@H](CC(C)C)C(=O)N[C@@H](CC(C)C)C(=O)N[C@@H](C)C(=O)N[C@@H](Cc1ccccc1)C(=O)O)[C@@H](C)O)[C@@H](C)OP(=O)(O)O)C(C)C [GR_C622A] (H-KTIVPA[pT]LPQLTPGGGGGRSYRQS[pS]ANLLAF-OH)	63.1
CC[C@H](C)[C@H](NC(=O)[C@@H](NC(=O)[C@@H](N)CCCCN)[C@@H](C)O)C(=O)N[C@H](C(=O)N1CCC[C@H]1C(=O)N[C@@H](C)C(=O)N[C@H](C(=O)N[C@@H](CC(C)C)C(=O)N1CCC[C@H]1C(=O)N[C@@H](CCC(N)=O)C(=O)N[C@@H](CC(C)C)C(=O)N[C@H](C(=O)N1CCC[C@H]1C(=O)NCC(=O)NCC(=O)NCC(=O)NCC(=O)NCC(=O)N[C@@H](CCCNC(=N)N)C(=O)N[C@@H](CO)C(=O)N[C@@H](Cc1ccc(O)cc1)C(=O)N[C@@H](CCCNC(=N)N)C(=O)N[C@@H](CCC(N)=O)C(=O)N[C@@H](CO)C(=O)N[C@@H](COP(=O)(O)O)C(=O)N[C@@H](C)C(=O)N[C@@H](CC(N)=O)C(=O)N[C@@H](CC(C)C)C(=O)N[C@@H](CC(C)C)C(=O)N[C@@H](CS)C(=O)N[C@@H](C)C(=O)O)[C@@H](C)O)[C@@H](C)OP(=O)(O)O)C(C)C [GR_F623A] (H-KTIVPA[pT]LPQLTPGGGGGRSYRQS[pS]ANLLCA-OH)	50.1
CC(C)C[C@H](NC(=O)[C@H](CC(N)=O)NC(=O)[C@H](C)NC(=O)[C@H](COP(=O)(O)O)NC(=O)[C@H](CO)NC(=O)[C@H](CCC(N)=O)NC(=O)[C@H](CCCNC(=N)N)NC(=O)[C@H](Cc1ccc(O)cc1)NC(=O)[C@H](CO)NC(=O)[C@H](CCCNC(=N)N)NC(=O)CNC(=O)CNC(=O)CNC(=O)CNC(=O)CNC(=O)[C@@H]1CCCN1C(=O)[C@@H](NC(=O)[C@H](CC(C)C)NC(=O)[C@H](CCC(N)=O)NC(=O)[C@@H]1CCCN1C(=O)[C@H](CC(C)C)NC(=O)[C@@H](NC(=O)[C@H](C)NC(=O)[C@@H]1CCCN1C(=O)[C@@H](NC(=O)[C@H](C)NC(=O)[C@@H](NC(=O)[C@@H](N)CCCCN)[C@@H](C)O)C(C)C)[C@@H](C)OP(=O)(O)O)[C@@H](C)O)C(=O)N[C@@H](CC(C)C)C(=O)N[C@@H](CS)C(=O)N[C@@H](Cc1ccccc1)C(=O)O [GR_I520A] (H-KTAVPA[pT]LPQLTPGGGGGRSYRQS[pS]ANLLCF-OH)	50.1
CC[C@H](C)[C@H](NC(=O)[C@@H](NC(=O)[C@@H](N)CCCCN)[C@@H](C)O)C(=O)N[C@H](C(=O)N1CCC[C@H]1C(=O)N[C@@H](C)C(=O)N[C@H](C(=O)N[C@@H](C)C(=O)N1CCC[C@H]1C(=O)N[C@@H](CCC(N)=O)C(=O)N[C@@H](CC(C)C)C(=O)N[C@H](C(=O)N1CCC[C@H]1C(=O)NCC(=O)NCC(=O)NCC(=O)NCC(=O)NCC(=O)N[C@@H](CCCNC(=N)N)C(=O)N[C@@H](CO)C(=O)N[C@@H](Cc1ccc(O)cc1)C(=O)N[C@@H](CCCNC(=N)N)C(=O)N[C@@H](CCC(N)=O)C(=O)N[C@@H](CO)C(=O)N[C@@H](COP(=O)(O)O)C(=O)N[C@@H](C)C(=O)N[C@@H](CC(N)=O)C(=O)N[C@@H](CC(C)C)C(=O)N[C@@H](CC(C)C)C(=O)N[C@@H](CS)C(=O)N[C@@H](Cc1ccccc1)C(=O)O)[C@@H](C)O)[C@@H](C)OP(=O)(O)O)C(C)C [GR_L525A] (H-KTIVPA[pT]APQLTPGGGGGRSYRQS[pS]ANLLCF-OH)	63.1
CC[C@H](C)[C@H](NC(=O)[C@@H](NC(=O)[C@@H](N)CCCCN)[C@@H](C)O)C(=O)N[C@H](C(=O)N1CCC[C@H]1C(=O)N[C@@H](C)C(=O)N[C@H](C(=O)N[C@@H](CC(C)C)C(=O)N1CCC[C@H]1C(=O)N[C@@H](CCC(N)=O)C(=O)N[C@@H](C)C(=O)N[C@H](C(=O)N1CCC[C@H]1C(=O)NCC(=O)NCC(=O)NCC(=O)NCC(=O)NCC(=O)N[C@@H](CCCNC(=N)N)C(=O)N[C@@H](CO)C(=O)N[C@@H](Cc1ccc(O)cc1)C(=O)N[C@@H](CCCNC(=N)N)C(=O)N[C@@H](CCC(N)=O)C(=O)N[C@@H](CO)C(=O)N[C@@H](COP(=O)(O)O)C(=O)N[C@@H](C)C(=O)N[C@@H](CC(N)=O)C(=O)N[C@@H](CC(C)C)C(=O)N[C@@H](CC(C)C)C(=O)N[C@@H](CS)C(=O)N[C@@H](Cc1ccccc1)C(=O)O)[C@@H](C)O)[C@@H](C)OP(=O)(O)O)C(C)C [GR_L528A] (H-KTIVPA[pT]LPQATPGGGGGRSYRQS[pS]ANLLCF-OH)	50.1
CC[C@H](C)[C@H](NC(=O)[C@@H](NC(=O)[C@@H](N)CCCCN)[C@@H](C)O)C(=O)N[C@H](C(=O)N1CCC[C@H]1C(=O)N[C@@H](C)C(=O)N[C@H](C(=O)N[C@@H](CC(C)C)C(=O)N1CCC[C@H]1C(=O)N[C@@H](CCC(N)=O)C(=O)N[C@@H](CC(C)C)C(=O)N[C@H](C(=O)N1CCC[C@H]1C(=O)NCC(=O)NCC(=O)NCC(=O)NCC(=O)NCC(=O)N[C@@H](CCCNC(=N)N)C(=O)N[C@@H](CO)C(=O)N[C@@H](Cc1ccc(O)cc1)C(=O)N[C@@H](CCCNC(=N)N)C(=O)N[C@@H](CCC(N)=O)C(=O)N[C@@H](CO)C(=O)N[C@@H](COP(=O)(O)O)C(=O)N[C@@H](C)C(=O)N[C@@H](CC(N)=O)C(=O)N[C@@H](C)C(=O)N[C@@H](CC(C)C)C(=O)N[C@@H](CS)C(=O)N[C@@H](Cc1ccccc1)C(=O)O)[C@@H](C)O)[C@@H](C)OP(=O)(O)O)C(C)C [GR_L620A] (H-KTIVPA[pT]LPQLTPGGGGGRSYRQS[pS]ANALCF-OH)	50.1
CC[C@H](C)[C@H](NC(=O)[C@@H](NC(=O)[C@@H](N)CCCCN)[C@@H](C)O)C(=O)N[C@H](C(=O)N1CCC[C@H]1C(=O)N[C@@H](C)C(=O)N[C@H](C(=O)N[C@@H](CC(C)C)C(=O)N1CCC[C@H]1C(=O)N[C@@H](CCC(N)=O)C(=O)N[C@@H](CC(C)C)C(=O)N[C@H](C(=O)N1CCC[C@H]1C(=O)NCC(=O)NCC(=O)NCC(=O)NCC(=O)NCC(=O)N[C@@H](CCCNC(=N)N)C(=O)N[C@@H](CO)C(=O)N[C@@H](Cc1ccc(O)cc1)C(=O)N[C@@H](CCCNC(=N)N)C(=O)N[C@@H](CCC(N)=O)C(=O)N[C@@H](CO)C(=O)N[C@@H](COP(=O)(O)O)C(=O)N[C@@H](C)C(=O)N[C@@H](CC(N)=O)C(=O)N[C@@H](CC(C)C)C(=O)N[C@@H](C)C(=O)N[C@@H](CS)C(=O)N[C@@H](Cc1ccccc1)C(=O)O)[C@@H](C)O)[C@@H](C)OP(=O)(O)O)C(C)C [GR_L621A] (H-KTIVPA[pT]LPQLTPGGGGGRSYRQS[pS]ANLACF-OH)	39.8
CC[C@H](C)[C@H](NC(=O)[C@@H](NC(=O)[C@@H](N)CCCCN)[C@@H](C)O)C(=O)N[C@H](C(=O)N1CCC[C@H]1C(=O)N[C@@H](C)C(=O)N[C@H](C(=O)N[C@@H](CC(C)C)C(=O)N1CCC[C@H]1C(=O)N[C@@H](CCC(N)=O)C(=O)N[C@@H](CC(C)C)C(=O)N[C@H](C(=O)N1CCC[C@H]1C(=O)NCC(=O)NCC(=O)NCC(=O)NCC(=O)NCC(=O)N[C@@H](CCCNC(=N)N)C(=O)N[C@@H](CO)C(=O)N[C@@H](Cc1ccc(O)cc1)C(=O)N[C@@H](CCCNC(=N)N)C(=O)N[C@@H](CCC(N)=O)C(=O)N[C@@H](CO)C(=O)N[C@@H](COP(=O)(O)O)C(=O)N[C@@H](C)C(=O)N[C@@H](C)C(=O)N[C@@H](CC(C)C)C(=O)N[C@@H](CC(C)C)C(=O)N[C@@H](CS)C(=O)N[C@@H](Cc1ccccc1)C(=O)O)[C@@H](C)O)[C@@H](C)OP(=O)(O)O)C(C)C [GR_N619A] (H-KTIVPA[pT]LPQLTPGGGGGRSYRQS[pS]AALLCF-OH)	39.8

Reference: paper PMC8080530, “Glucocorticoid receptor Thr524 phosphorylation by MINK1 induces interactions with 14-3-3 protein regulators” (The Journal of Biological Chemistry, 2021)
